In general, EC50 refers to the midpoint of the concentration-response curve. A low value points to higher potency in that assay.

Entries after “also recorded” stand apart in the source; their conditions may differ.

Assay [1] deals with T1, hTRPA1 (Homo sapiens, UniProt O75762).
T1 construct: The full length hTRPA1 was amplified by PCR with Kpn1 and Xho1 restriction enzyme sites; expressed in transfected cells; also transient transfection
Put plainly: Membrane potential dye fluorescence assay (FLIPR/FLEXstation), activation of hTRPA1 in transfected HEK293 cells. It is filed as cell-based. Here is the method: Once expression of TRPA1 was confirmed, 100 μl of the Blue or Red FMP dye (Molecular Devices) was added to each well of plates seeded with the transiently transfected cells. The plate was then incubated in a 37° C./5% CO2 incubator for 1 hour. The plate was read in a FLEXStation microplate reader (Molecular Devices) with an excitation of 530 nm and an emission of 565 nm. The fluorescence was monitored for 3 minutes upon exposure of the cells to a TRPA1 activating agent (e.g., cinnamaldehyde).
(§1) Samples in a 384-well plate were evaluated in a 5 minute assay on the FLIPR-Tetra™ (Molecular Devices). The assay was performed on a FLIPR™ using the excitation 510-545 nm and emission 565-625 nm filter sets. TRPA1-Transfected HEK cells, 15,000/well, were seeded overnight on poly-D-lysine coated 384 well plates in 20 μl media. Membrane Potential Assay Dye Red (Molecular Devices), 20 μl/well, was added and the plates incubated for 1 hour in a 37° C. and 5% CO2 incubator. The plates were then removed from the incubator and equilibrated to room temperature for 15 minutes before reading on the FLIPR®. The plates were read on the FLIPR® for a total of 3 minutes. Baseline fluorescence was obtained on the FLIPR® for 10 seconds followed by addition (typically 10 μl) of each agonist by the FLIPR® and read for an additional 2 minutes and 50 seconds.

The test system of assay [2] is mice. Put plainly: Taste aversion (lick) assay in mice. The conditions noted are these: mice, increasing concentrations. Format: in vivo, mouse. The protocol: In this assay, the ability of identified lower alkyl phenols to evoke taste aversion in mice was measured. Mice were exposed to increasing concentrations of lower alkyl phenols.
Assay [3] relates to parental HEK293 cells. Put plainly: Membrane potential dye fluorescence assay in parental (non-transfected) HEK293 cells. Particulars: cells not expressing TRPA1. It is filed as cell-based, human.
The target in assay [4] is T2, hTRPV1 (Homo sapiens, UniProt Q8NER1).
T2 construct: expressed in transfected cells
Briefly: Membrane potential dye fluorescence assay, HEK293 cells expressing hTRPV1. Format: cell-based. The conditions noted are these: HEK293, increasing concentrations, FIG. 6. Here is the method:
as §1
(§2) HEK293 cells were stably transfected with one of hTRPA1, hTRPV1 or hTRPM5. CHO cells were stably transfected with one of hTRPM4B or TRPM5. Parental HEK293 and CHO cells were also used as a negative control.

Assay [5] can be described thus: Human sensory panel, detection threshold in water. Format: in vivo. Particulars: FIG. 2B.
In assay [6] the target is T3, hTRPM4B (Homo sapiens, UniProt Q8TD43).
T3 construct: expressed in transfected cells
Briefly: Membrane potential dye fluorescence assay, CHO cells expressing hTRPM4B. It is filed as cell-based. Particulars: CHO, increasing concentrations, FIG. 6. The protocol:
as §1, §2

Assay [7] addresses T1, hTRPA1. Briefly: siRNA knockdown of hTRPA1 in hTRPA1 HEK293 cells, membrane potential dye response. Format: cell-based. The conditions noted are these: increasing concentrations. The protocol:
HEK293 cells were transiently transfected with one of siRNA for hTRPA1, and one of Silencer pre-designed and validated siRNA (Ambion), GAPDH or negative siRNA control. 1×10^6 hTRPA1 stably transfected HEK 293 cells were plated in 35 mm dishes overnight. The next day 10 μM of each siRNA was transfected into these cells using siPORT Amine (Ambion) and incubated overnight. The following day, transfected cells were trypsinized and seeded into 384-well black, clear bottom, poly-D-lysine plates (Corning) at a density of 15,000 cells/well in a 20 μl volume and incubated in a 37° C./5% CO2 incubator overnight.
The cells were then loaded with membrane potential sensitive dye and subjected to the fluorescence assay described in Example 2.

Assay [8] addresses T4, hTRPM5 (Homo sapiens, UniProt Q9NZQ8).
T4 construct: expressed in transfected cells
T4 sequence (Q9NZQ8 1-1165): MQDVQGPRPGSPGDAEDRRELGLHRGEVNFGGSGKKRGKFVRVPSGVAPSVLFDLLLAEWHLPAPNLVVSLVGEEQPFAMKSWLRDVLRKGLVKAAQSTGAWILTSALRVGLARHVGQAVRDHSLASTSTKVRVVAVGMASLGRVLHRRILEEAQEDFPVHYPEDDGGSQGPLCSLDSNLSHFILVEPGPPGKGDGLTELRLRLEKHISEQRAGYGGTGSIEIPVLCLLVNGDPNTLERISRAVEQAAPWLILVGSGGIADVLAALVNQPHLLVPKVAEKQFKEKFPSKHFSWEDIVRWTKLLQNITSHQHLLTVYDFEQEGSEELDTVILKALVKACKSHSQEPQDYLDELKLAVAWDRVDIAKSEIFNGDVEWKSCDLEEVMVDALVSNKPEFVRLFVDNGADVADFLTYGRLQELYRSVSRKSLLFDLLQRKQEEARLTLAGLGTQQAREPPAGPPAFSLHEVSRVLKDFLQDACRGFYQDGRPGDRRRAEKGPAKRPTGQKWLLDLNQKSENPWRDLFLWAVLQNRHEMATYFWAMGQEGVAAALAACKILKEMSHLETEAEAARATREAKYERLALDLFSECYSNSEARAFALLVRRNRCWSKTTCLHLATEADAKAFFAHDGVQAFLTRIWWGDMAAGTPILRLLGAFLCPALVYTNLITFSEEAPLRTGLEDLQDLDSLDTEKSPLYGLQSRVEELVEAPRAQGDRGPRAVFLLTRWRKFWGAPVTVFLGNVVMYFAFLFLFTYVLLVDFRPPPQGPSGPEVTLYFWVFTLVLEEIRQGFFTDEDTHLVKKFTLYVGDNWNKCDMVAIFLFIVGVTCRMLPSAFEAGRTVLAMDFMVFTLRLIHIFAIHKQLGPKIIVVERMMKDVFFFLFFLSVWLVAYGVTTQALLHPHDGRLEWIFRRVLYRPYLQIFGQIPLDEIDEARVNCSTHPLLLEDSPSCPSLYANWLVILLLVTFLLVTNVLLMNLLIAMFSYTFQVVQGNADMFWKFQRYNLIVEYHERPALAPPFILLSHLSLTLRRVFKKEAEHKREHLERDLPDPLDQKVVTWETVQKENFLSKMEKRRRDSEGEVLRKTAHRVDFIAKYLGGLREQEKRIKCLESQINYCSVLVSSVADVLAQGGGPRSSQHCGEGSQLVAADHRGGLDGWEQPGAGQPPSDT
Put plainly: Membrane potential dye fluorescence assay, HEK293 or CHO cells expressing hTRPM5. The conditions noted are these: increasing concentrations, FIG. 6. It is filed as cell-based. The protocol: as §1, §2

T1 sequence (O75762 whole entry): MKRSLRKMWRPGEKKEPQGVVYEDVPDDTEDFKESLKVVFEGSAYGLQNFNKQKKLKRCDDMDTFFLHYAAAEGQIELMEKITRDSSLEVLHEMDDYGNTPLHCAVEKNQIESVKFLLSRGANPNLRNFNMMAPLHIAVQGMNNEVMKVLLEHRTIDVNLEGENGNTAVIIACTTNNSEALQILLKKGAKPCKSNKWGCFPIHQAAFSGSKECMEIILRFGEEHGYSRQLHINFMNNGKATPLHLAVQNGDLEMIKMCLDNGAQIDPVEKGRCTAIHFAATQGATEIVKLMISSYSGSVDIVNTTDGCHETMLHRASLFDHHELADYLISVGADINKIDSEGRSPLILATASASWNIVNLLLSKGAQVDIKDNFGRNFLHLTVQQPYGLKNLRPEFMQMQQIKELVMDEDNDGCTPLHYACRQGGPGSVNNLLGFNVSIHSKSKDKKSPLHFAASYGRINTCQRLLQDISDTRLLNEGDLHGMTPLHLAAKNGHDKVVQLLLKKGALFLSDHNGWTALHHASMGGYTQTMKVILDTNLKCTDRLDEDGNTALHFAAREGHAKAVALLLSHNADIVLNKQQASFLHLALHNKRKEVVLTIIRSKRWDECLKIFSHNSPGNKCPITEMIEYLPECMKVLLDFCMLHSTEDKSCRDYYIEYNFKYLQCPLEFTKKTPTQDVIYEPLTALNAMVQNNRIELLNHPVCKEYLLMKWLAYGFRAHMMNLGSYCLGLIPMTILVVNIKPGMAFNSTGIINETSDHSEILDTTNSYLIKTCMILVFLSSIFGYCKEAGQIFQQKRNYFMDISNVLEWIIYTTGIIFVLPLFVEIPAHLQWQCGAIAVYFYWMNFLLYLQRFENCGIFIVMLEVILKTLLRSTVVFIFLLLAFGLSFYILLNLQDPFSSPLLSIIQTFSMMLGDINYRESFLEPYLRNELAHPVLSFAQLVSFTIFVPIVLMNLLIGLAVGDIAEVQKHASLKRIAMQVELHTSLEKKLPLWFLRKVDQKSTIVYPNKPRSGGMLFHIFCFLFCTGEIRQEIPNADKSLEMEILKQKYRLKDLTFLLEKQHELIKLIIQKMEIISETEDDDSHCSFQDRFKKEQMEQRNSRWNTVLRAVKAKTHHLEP
T2 sequence (Q8NER1 whole entry): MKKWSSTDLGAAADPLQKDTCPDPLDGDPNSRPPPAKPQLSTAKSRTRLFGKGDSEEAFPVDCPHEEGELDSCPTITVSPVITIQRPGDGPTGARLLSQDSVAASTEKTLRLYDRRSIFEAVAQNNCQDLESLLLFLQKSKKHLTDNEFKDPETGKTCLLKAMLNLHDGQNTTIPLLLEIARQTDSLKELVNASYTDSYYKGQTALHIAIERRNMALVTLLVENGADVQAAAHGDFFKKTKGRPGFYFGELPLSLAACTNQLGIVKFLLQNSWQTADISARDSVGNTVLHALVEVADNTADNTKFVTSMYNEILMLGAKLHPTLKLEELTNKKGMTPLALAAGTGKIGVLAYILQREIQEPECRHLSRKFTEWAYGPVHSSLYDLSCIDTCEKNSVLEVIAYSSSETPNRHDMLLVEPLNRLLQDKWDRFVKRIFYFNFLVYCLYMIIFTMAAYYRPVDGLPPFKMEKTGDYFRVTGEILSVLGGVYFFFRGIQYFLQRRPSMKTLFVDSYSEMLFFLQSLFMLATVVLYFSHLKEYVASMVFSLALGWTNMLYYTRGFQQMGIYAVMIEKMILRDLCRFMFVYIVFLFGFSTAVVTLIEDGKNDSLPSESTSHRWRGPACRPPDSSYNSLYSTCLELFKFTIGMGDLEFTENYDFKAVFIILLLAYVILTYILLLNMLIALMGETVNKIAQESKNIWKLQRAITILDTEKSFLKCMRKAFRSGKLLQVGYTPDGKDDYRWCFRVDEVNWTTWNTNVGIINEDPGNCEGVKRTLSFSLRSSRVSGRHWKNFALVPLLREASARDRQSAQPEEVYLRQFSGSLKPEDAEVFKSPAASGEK
T3 sequence (Q8TD43 whole entry): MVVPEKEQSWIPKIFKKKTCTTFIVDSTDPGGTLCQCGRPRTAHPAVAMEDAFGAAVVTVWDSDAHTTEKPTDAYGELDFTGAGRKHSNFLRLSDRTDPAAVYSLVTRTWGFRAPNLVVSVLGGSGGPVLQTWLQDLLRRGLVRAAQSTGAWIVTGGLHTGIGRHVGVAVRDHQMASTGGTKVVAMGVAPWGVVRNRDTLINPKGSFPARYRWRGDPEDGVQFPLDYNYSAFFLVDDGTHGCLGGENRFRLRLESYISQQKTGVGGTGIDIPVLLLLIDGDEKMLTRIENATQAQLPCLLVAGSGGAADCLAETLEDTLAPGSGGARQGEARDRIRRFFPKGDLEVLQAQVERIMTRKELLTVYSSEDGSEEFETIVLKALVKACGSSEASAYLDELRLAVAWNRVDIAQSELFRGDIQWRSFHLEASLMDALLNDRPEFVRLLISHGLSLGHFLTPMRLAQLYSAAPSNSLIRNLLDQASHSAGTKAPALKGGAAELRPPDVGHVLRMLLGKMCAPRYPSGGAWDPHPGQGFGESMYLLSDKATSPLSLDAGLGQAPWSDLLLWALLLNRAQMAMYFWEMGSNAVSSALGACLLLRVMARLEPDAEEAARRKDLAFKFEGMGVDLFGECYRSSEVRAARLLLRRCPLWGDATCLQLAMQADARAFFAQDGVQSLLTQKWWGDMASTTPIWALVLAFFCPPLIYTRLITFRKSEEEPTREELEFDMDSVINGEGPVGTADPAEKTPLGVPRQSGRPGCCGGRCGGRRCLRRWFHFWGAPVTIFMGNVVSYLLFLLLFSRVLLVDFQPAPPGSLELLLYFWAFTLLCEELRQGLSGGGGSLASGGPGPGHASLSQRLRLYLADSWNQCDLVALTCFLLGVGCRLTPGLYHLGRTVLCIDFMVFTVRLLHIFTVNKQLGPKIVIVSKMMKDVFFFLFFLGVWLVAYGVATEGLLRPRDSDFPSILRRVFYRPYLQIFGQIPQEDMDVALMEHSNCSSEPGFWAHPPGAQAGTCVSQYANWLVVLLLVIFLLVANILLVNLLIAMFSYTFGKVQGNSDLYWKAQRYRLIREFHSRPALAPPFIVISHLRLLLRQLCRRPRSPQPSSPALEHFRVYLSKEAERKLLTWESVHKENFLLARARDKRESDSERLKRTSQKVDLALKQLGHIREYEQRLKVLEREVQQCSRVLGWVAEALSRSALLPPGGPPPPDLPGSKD

As to `Cc1ccc(C(C)C)c(O)c1` [Thymol], the “activation of TRPA1 over standard value from cells not expressing TRPA1” value in assay [1] (at 10 μM, FIG. 3B) is reported as “about 7 fold”. For the same compound, the “TRPA1 activation / agonist activity (in words)” value in assay [1] (hTRPA1 HEK293 cells, increase in fluorescence of membrane potential dye) is recorded as “at a level similar to that of cinnamaldehyde; also recorded: generated an increase in relative fluorescence”. In addition, the “taste aversion, licks/trial (in words)” value in assay [2] is reported as “a decrease in licks/trial”. Besides, the “response of parental HEK293 cells (in words)” value in assay [3] was “no change in activation”. Also, in assay [4], the “response of cells expressing hTRPV1 (in words)” value is listed as “did not generate the same increase in relative fluorescence”. The “average detection threshold in water” value in assay [5] is on record as “approximately 5 μM”. Moreover, the “response of cells expressing hTRPM4B (in words)” value in assay [6] is “did not generate the same increase in relative fluorescence”. Further, the “fluorescence response of cells transfected with hTRPA1 siRNA versus GAPDH or negative siRNA control (in words)” value in assay [7] is listed as “did not increase as much as”. The “response of cells expressing hTRPM5 (in words)” value in assay [8] was “did not generate the same increase in relative fluorescence”.

In assay [1] (HEK293 cells stably transfected with hTRPA1, FMP dye, FLIPR), `O=CC=Cc1ccccc1` [cinnamaldehyde] returned an EC50 of 7 µM. In assay [3], the “response of parental HEK293 cells (in words)” value was “no change in activation”. The “fluorescence response of cells transfected with hTRPA1 siRNA versus GAPDH or negative siRNA control (in words)” value in assay [7] is “did not increase as much as”.

Source of the values: patent publication US7674594B2, “Screening assay for inhibitors of TRPA1 activation by a lower alkyl phenol” (Redpoint Bio Corporation, priority 2006, dated 2010).
